Reference: publication PMC11373198, “In vitro efficacy of next-generation dihydrotriazines and biguanides against babesiosis and malaria parasites” (Antimicrobial Agents and Chemotherapy, 2024)
Where two headings read alike, the source gives them in different places.

What was measured:
B. duncani (WA-1) = experiment: In vitro growth inhibition of B. duncani in human erythrocytes (SYBR Green-I); format: cell-based, Babesia duncani; settings: for IC50: 60 h; for activity against B. duncani, structure-activity relationship: analogs compared within screening, 2-chloro, 4-trifluoromethoxy series or terminal aryl heterocycles
B. divergens (Rouen87) = experiment: In vitro growth inhibition of B. divergens in human erythrocytes (SYBR Green-I); format: cell-based; settings: Babesia divergens, Erythrocyte, DFS20 medium
Description: (§1) The effect of DHT derivatives on the intraerythrocytic development of P. falciparum, B. duncani, B. divergens and B. MO1 and the determination of IC50 values were conducted as previously reported ([54], [67]). Briefly, the parasites cultured in vitro (0.1% parasitemia with 5% hematocrit in complete DFS20 medium or RPMI-1640) were treated with various concentrations of the compounds in a 96-well plate and incubated at 37 °C for either 60 h in the case of B. duncani or 72 h in the case of P. falciparum. Parasitemia was then determined using the SYBR Green-I method by adding an equal volume of parasite culture to the lysis buffer (0.008% saponin, 0.08% Triton-X-100, 20 mM Tris-HCl (pH = 7.5), and 5 mM EDTA) containing SYBR Green-I (0.01%). The mixture was then incubated at 37°C for 1 h in the dark. The fluorescence was measured at 480 nm (excitation) and 540 nm (emission) using a BioTek Synergy™ Mx Microplate Reader. Background fluorescence from uninfected erythrocytes maintained in a complete DFS20 and RPMI-1640 medium was subtracted from each sample, and the 50% inhibitory concentration (IC50) of the drug was determined by plotting drug concentrations versus parasite growth using GraphPad Prism 9.2.1. Data are shown as mean ± SD from two biological replicates with three technical replicates.

B. MO1 = experiment: In vitro growth inhibition of B. MO1 in human erythrocytes (SYBR Green-I); format: cell-based, Babesia MO1; settings: DFS20 medium
Description: as §1

P. falciparum 3D7 = experiment: In vitro growth inhibition of P. falciparum 3D7 (SYBR Green-I); format: cell-based, Plasmodium falciparum
P. falciparum Dd2 = experiment: In vitro growth inhibition of P. falciparum Dd2 (SYBR Green-I); format: cell-based, Plasmodium falciparum; settings: DFS20 medium, read-out: PfDd2 (IC50 in nM)
P. falciparum HB3 = experiment: In vitro growth inhibition of P. falciparum HB3 (SYBR Green-I); format: cell-based, Plasmodium falciparum; settings: DFS20 medium, read-out: PfHB3 (IC50 in nM)
[1] = tested on: human cell lines (HepG2, HCT-116, HEK-293, and HeLa); experiment: Cytotoxicity on human cell lines, average / overall, and therapeutic index; format: cell-based; settings: HepG2, HCT-116, HEK-293, HeLa, MTT 72 h
Description: HeLa, HepG2, HEK293, and HCT116 cell lines were obtained from the American Type Culture Collection (ATCC) and maintained in Dulbecco’s modified Eagle’s medium (DMEM) (Invitrogen 11995–065) containing 25 mM glucose, 1 mM sodium pyruvate, and supplemented with 5 mM HEPES, 10% FBS, and penicillin-streptomycin (50 U/mL penicillin, 50 µg/mL streptomycin). Cells were seeded in a 96-well tissue culture plate (20,000 cells per well) and allowed to adhere for 24 hours, after which they were treated with a 12-step 2-fold serial dilution of each drug starting at 1 mM as the highest final concentration. Cells maintained in the medium supplemented with either 0.1% or 10% DMSO were used as negative and positive vehicle controls, respectively. The plates were incubated at 37 °C for 72 h, after which each well was incubated with 0.5 mg/mL of MTT reagent (MP Chemicals #02102227) for 4 h in the dark at 37 °C. The formazan crystals formed by living cells were solubilized with the addition of 100 µL of DMSO to each well. We measured the OD590nm using a SpectraMax plate reader. From the obtained OD values, percent cell viability was estimated by normalizing to the mean of 10% DMSO wells (set as 100% toxicity) and mean of the vehicle control wells (set as 0% toxicity). Dose-response curves were plotted using GraphPad Prism version 9.1.2.

B. microti = tested on: B. microti; design: method as in PMID 7447406; settings: Mongolian jirds; cited from earlier work
Babesia gibsoni = tested on: Babesia gibsoni; design: method as in PMID 18794380, PMID 21904052; settings: cited from earlier work
Babesia bovis = tested on: Babesia bovis; design: method as in PMID 18794380, PMID 21904052; settings: cited from earlier work
B. duncani = tested on: B. duncani; design: method as in PMID 37055610; settings: previous studies; read-out: IC50 against B. duncani; cited from earlier work
[2] = Babesia duncani, Erythrocyte, read-out: B. duncani WA1 (IC50 in nM), DFS20 medium, 60 h
[3] = Plasmodium falciparum, 3D7, 72 h, DFS20 medium, 72 h, read-out: Pf3D7 (IC50 in nM)
[4] = Plasmodium falciparum, 3D7, DFS20, Table S3, read-out: P.falciparum 3D7 (IC50 in nM), DFS20
[5] = Plasmodium falciparum, 3D7, RPMI-1640 + 10% human serum, read-out: P.falciparum 3D7 (IC50 in nM), RPMI-1640 + 10%human serum
[6] = Plasmodium falciparum, DD2, 72 h
[7] = Plasmodium falciparum, HB3, 72 h

Structure (SMILES)	IC50 (B. duncani (WA-1); [2])	activity against B. duncani, structure-activity relationship (B. duncani (WA-1))	IC50 (B. divergens (Rouen87))	IC50 (B. MO1; Babesia, Erythrocyte)	IC50 (P. falciparum 3D7; [3])	IC50 (P. falciparum 3D7; [4])	IC50 (P. falciparum 3D7; [5])	IC50 (P. falciparum Dd2; [6])	IC50 (P. falciparum HB3; [7])	IC50 [1]	activity against B. microti infection (B. microti)	inhibition of in vitro parasite growth of Babesia gibsoni (Babesia gibsoni)	inhibition of in vitro parasite growth of Babesia bovis (Babesia bovis)	IC50 (B. duncani (WA-1); read-out: B. duncani WA1 (IC50 in nM), DFS20 medium)	IC50 (B. MO1)	IC50 (P. falciparum 3D7; DFS20 medium, 72 h, read-out: Pf3D7 (IC50 in nM))	IC50 (P. falciparum Dd2; 72 h)	IC50 (P. falciparum HB3; 72 h)	IC50 (B. duncani)
CC1(C)N=C(N)N=C(N)N1OCCCOc1ccc(-n2cncn2)cc1 [JPC-1059]	10.3 ± 0.7 nM	beneficial	3.7 ± 0.7 nM	5.4 ± 1.4 nM	2 ± 0.64 nM	1.3 ± 0.09 nM	1.4 ± 0.021 nM	0.3 ± 0.02 nM	0.3 ± 0.17 nM	132000 nM	–	–	–	–	–	–	–	–	–
COc1cc(Cc2cnc(N)nc2N)cc(OC)c1OC [trimethoprim]	–	–	–	–	–	–	–	–	–	–	little to no activity	moderate to effective inhibition	moderate to effective inhibition	–	–	–	–	–	–
CC1(C)N=C(N)N=C(N)N1OCCCOc1ccc(Cl)c(C#N)c1 [JPC-2053]	13.4 ± 1.41 nM	–	6.6 ± 1.7 nM	0.6 ± 0.5 nM	2.6 ± 1.51 nM	1.5 ± 0.071 nM	1.4 ± 0.021 nM	0.5 ± 0.045 nM	0.75 ± 0.34 nM	26000 nM	–	–	–	–	–	–	–	–	–
COc1ccc(OCCCON2C(N)=NC(N)=NC2(C)C)cc1 [JPC-1044]	7.1 ± 0.32 nM	–	12 ± 0.16 nM	0.2 ± 0.15 nM	3.3 ± 2 nM	2 ± 0.02 nM	3.8 ± 0.022 nM	0.6 ± 0.14 nM	0.42 ± 0.25 nM	62000 nM	–	–	–	–	–	–	–	–	–
CC1(C)N=C(N)N=C(N)N1OCCCOc1ccc(Cl)cc1Cl [JPC-210]	3.6 ± 0.42 nM	–	3.1 ± 1.42 nM	0.8 ± 0.24 nM	3.1 ± 1.24 nM	1.6 ± 0.025 nM	1.2 ± 0.1 nM	0.05 ± 0.01 nM	0.4 ± 0.07 nM	69000 nM	–	–	–	–	–	–	–	–	–
CC1(C)N=C(N)N=C(N)N1OCCCOc1ccc(-c2nnnn2C(C)(C)C)cc1 [JPC-3671]	1.6 ± 0.5 nM	beneficial	24 ± 2.14 nM	6.5 ± 0.7 nM	1 ± 0.32 nM	2.1 ± 0.016 nM	2.6 ± 0.02 nM	17 ± 1.5 nM	0.4 ± 0.02 nM	38000 nM	–	–	–	–	–	–	–	–	–
Cc1cc(NS(=O)(=O)c2ccc(N)cc2)no1 [sulfamethoxazole]	–	–	–	–	–	–	–	–	–	–	little to no activity	–	–	–	–	–	–	–	–
CC1(C)N=C(N)N=C(N)N1OCCCOc1ccccc1OC(F)(F)F [JPC-2060]	~0.8 nM	–	~4 nM	~0.5 nM	~1.9 nM	1.9 ± 0.29 nM	0.8 ± 0.17 nM	~0.4 nM	~0.6 nM	15000 nM	–	–	–	1 ± 0.06 nM	0.6 ± 0.07 nM	2.3 ± 0.5 nM	0.77 ± 0.4 nM	0.7 ± 0.1 nM	–
Nc1ccc(S(=O)(=O)c2ccc(N)cc2)cc1 [dapsone]	–	–	–	–	–	–	–	–	–	–	little to no activity	–	–	–	–	–	–	–	–
NC1=NC(c2ccc(F)cc2)N(OCCCOc2ccc(OC(F)(F)F)cc2Cl)C(N)=N1 (centres unmarked) [JPC-3680]	3.2 ± 0.21 nM	increased activity	40 ± 0.7 nM	6 ± 0.5 nM	1.7 ± 0.7 nM	1.2 ± 0.03 nM	1.8 ± 0.3 nM	37 ± 1.25 nM	2.1 ± 0.33 nM	10000 nM	–	–	–	–	–	–	–	–	–
CN(Cc1cnc2nc(N)nc(N)c2n1)c1ccc(C(=O)N[C@@H](CCC(=O)O)C(=O)O)cc1 [methotrexate]	–	–	–	–	–	–	–	–	–	–	–	moderate to effective inhibition	moderate to effective inhibition	–	–	–	–	–	–
CCC(C)C1(C)N=C(N)N=C(N)N1OCCCOc1cc(Cl)c(Cl)cc1Cl (centres unmarked) [JPC-2748]	4.4 ± 0.01 nM	–	3.7 ± 0.3 nM	4 ± 0.74 nM	3 ± 0.77 nM	0.2 ± 0.12 nM	2 ± 0.061 nM	12 ± 1.13 nM	0.41 ± 0.07 nM	1500 nM	–	–	–	–	–	–	–	–	–
NC1=NC(c2cccnc2)N(OCCCOc2ccc(OC(F)(F)F)cc2Cl)C(N)=N1 (centres unmarked) [JPC-3681]	2 ± 0.2 nM	increased activity	6.4 ± 0.7 nM	1 ± 0.07 nM	2.3 ± 0.3 nM	0.7 ± 0.072 nM	1 ± 0.08 nM	0.45 ± 0.03 nM	0.8 ± 0.07 nM	38000 nM	–	–	–	–	–	–	–	–	–
CCc1nc(N)nc(N)c1-c1ccc(Cl)cc1 [pyrimethamine, 2,4-Diamino-5-(4-chlorophenyl)−6-ethylpyrimidine]	–	–	–	–	–	–	–	–	–	–	little to no activity	moderate to effective inhibition	moderate to effective inhibition	–	–	–	–	–	940 nM
